Test results as given in publication PMC7343802, “The development of the dog heartworm is highly sensitive to sterols which activate the orthologue of the nuclear receptor DAF-12” (Scientific Reports, 2020).

What was measured:
CelDAF-12 = CelDAF-12 (Caenorhabditis elegans, UniProt G5EFF5); assay: cell-based
D. immitis iL3 larvae = assay: in vitro molting of infective third-stage larvae (iL3) into L4; assay type: cell-based, Dirofilaria immitis

Sequence of CelDAF-12 (G5EFF5 516-753): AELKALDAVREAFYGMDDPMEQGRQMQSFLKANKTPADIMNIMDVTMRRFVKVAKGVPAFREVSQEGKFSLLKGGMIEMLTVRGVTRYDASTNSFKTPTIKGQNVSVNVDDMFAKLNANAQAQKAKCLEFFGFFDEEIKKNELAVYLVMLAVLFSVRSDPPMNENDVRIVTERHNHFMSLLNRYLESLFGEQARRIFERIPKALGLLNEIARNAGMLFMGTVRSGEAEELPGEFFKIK

CC(CCCC(C)C1CCC2C3=CCC4CC(=O)CCC4(C)C3CCC21C)C(=O)O [Δ7-DA, (25S)-Δ7-dafachronic acid]
EC50 (CelDAF-12): 16 nM | number of free cuticles (completed molt, L4) versus DMSO control (D. immitis iL3 larvae): significantly higher | start of the molting process (day in culture) (D. immitis iL3 larvae): 3 to 4 days | overall effect on molting of iL3 into L4 (D. immitis iL3 larvae; 10 µM): induced a rapid development of iL3 into L4 | percentage of iL3 which had initiated but not completed the molt, compared to DMSO control (D. immitis iL3 larvae; 10 µM, day 5 or 6): low percentage
